The test system of one series is advanced solid tumors. The series is described as follows: Preliminary antitumor activity, tumor response by RECIST v1.1. It is filed as in vivo, human.
Series [1] in a line: Clinical plasma pharmacokinetics of ceralasertib. The following applies: human, oral. It is filed as in vivo.
In a further series the test system is pRAD50. Nature of the series: pRAD50 IHC H-score in paired tumor biopsies. It is filed as in vivo, human.
Series [2] deals with LoVo colorectal cancer cell line. Nature of the series: LoVo growth inhibition, ceralasertib alone or with carboplatin. It is filed as cell-based, human.
The test system of the next series is ATR. The following applies: read-out: IC90 for ATR inhibition in cells; cited from earlier work.
The subject of series [3] is TP53-mutant triple-negative breast cancer PDX. As to conditions: cited from earlier work.

Like-named read-outs stand apart in the source and are kept apart here.

Take `C[C@@H]1COCCN1c1cc(C2([S@](C)(=N)=O)CC2)nc(-c2cc[nH]c3nccc2-3)n1` [ceralasertib]: the “Best response of progressive disease, patients” value in the series with advanced solid tumors (12 of 34 response-evaluable patients) stood at 35%. The “Best RECIST v1.1 response of stable disease (≥35 days), patients” value in the series with advanced solid tumors (18 of 34 response-evaluable patients, including the two unconfirmed PRs) was found to be 53%. Further, the “Unconfirmed RECIST v1.1 PRs” value in the series on advanced solid tumors (evaluable-for-response set n=34, 1 in cohort 3, 1 in cohort 7) worked out at 2 patients. Moreover, in the series with advanced solid tumors (evaluable-for-response set n=34, both in cohort 6), the “Confirmed RECIST v1.1 partial responses” value came to 2 patients. Also, the “Tumor reduction (unconfirmed response)” value in the series with advanced solid tumors (one patient, cohort 7, clear cell ovarian cancer, two cycles) is on record as 43%. Further, the half-life (commonly the time in which the quantity being followed falls by half) in series [1] (mean half-life, administered alone) is 8.14 to 10.6 h; in series [1] (mean half-life, in combination with carboplatin) it was 5.14 to 7.22 h; in series [1] (terminal plasma half-life, abstract summary), 8 to 11 h. Besides, the Tmax (as a rule, the time from dosing to the highest level) in series [1] (median tmax, in combination with carboplatin) is 1.05 to 1.07 h; in series [1] (median tmax, single dose, alone, across dose groups) it was 1 to 1.03 h; in series [1] (tmax, abstract summary), ~1 h. In addition, the “pRAD50 expression following treatment” value in the series on pRAD50 (all four evaluable paired tumor biopsies) is reported as “clear increases in pRAD50 expression”. The “Increase in pRAD50 expression” value in the series with pRAD50 (cohort 7 patient, baseline ATM 20%, H-scores of 20–80) was found to be 400%. Also, the “Combination cell killing with carboplatin” value was “not at 0.1 μmol/L” in series [2] (0.1 μmol/L ceralasertib), “combination cell killing with carboplatin was seen” in series [2] (0.3 μmol/L ceralasertib) and “Greater cell killing” in series [2] (1 μmol/L ceralasertib). Besides, the IC90 (usually the concentration needed for an effect of 90%) with ATR is […]. Moreover, in series [3] (carboplatin dosed concurrently with ceralasertib on day 2 or 3), the Tumor control entry is given as “growth inhibition rather than tumor control”. For the same compound, the results for the Antitumor efficacy entry in series [3] (ceralasertib dosed 2 days after carboplatin) and in series [3] (ceralasertib dosed 3 days after carboplatin) were “tumor control” and “tumor regression”, respectively.

The values above are taken from PMC9401487 (Clinical Cancer Research, 2021).
